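These data come from cells grown in 96-well plates and exposed to compound for 48 hours at five concentrations. GI50 is the concentration that inhibits growth by half. TGI is the concentration that stops growth completely.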
What was measured:
Test in all cases: growth of human tumour cells (NCI), 48 h
SK-MEL-2 melanoma = tested on: SK-MEL-2 melanoma
NCI-H226 lung = tested on: NCI-H226 lung
MCF7 breast = tested on: MCF7 breast
HCT-15 colon = tested on: HCT-15 colon
LOX IMVI melanoma = tested on: LOX IMVI melanoma
SW-620 colon = tested on: SW-620 colon
OVCAR-3 ovarian = tested on: OVCAR-3 ovarian
DU-145 prostate = tested on: DU-145 prostate
HL-60(TB) leukemia = tested on: HL-60(TB) leukemia
A549 NSCLC = tested on: A549 NSCLC

Structure (SMILES) | TGI (SK-MEL-2 melanoma) | TGI (NCI-H226 lung) | TGI (MCF7 breast) | TGI (HCT-15 colon) | TGI (LOX IMVI melanoma) | TGI (SW-620 colon) | TGI (OVCAR-3 ovarian) | TGI (DU-145 prostate) | TGI (HL-60(TB) leukemia) | TGI (A549 NSCLC) | GI50 (SK-MEL-2 melanoma) | GI50 (NCI-H226 lung) | GI50 (MCF7 breast) | GI50 (LOX IMVI melanoma) | GI50 (OVCAR-3 ovarian) | GI50 (DU-145 prostate) | GI50 (HL-60(TB) leukemia) | GI50 (A549 NSCLC)
Oc1cc(Cc2ccccc2)c(Cc2ccccc2)cc1O | > 10 µM | > 10 µM | > 10 µM | > 10 µM | > 10 µM | > 10 µM | > 10 µM | > 10 µM | > 10 µM | > 10 µM | – | – | – | – | – | – | – | –
COc1cc(C2c3c(ccc4ccccc34)C(=O)C3CCC(=O)N32)cc(OC)c1OC (stereo not drawn) | > 50 µM | > 50 µM | > 50 µM | > 50 µM | – | > 50 µM | > 50 µM | > 50 µM | > 50 µM | > 50 µM | – | – | – | – | – | – | – | –
COC(=O)Cc1cc(O)c2c(c1O)C(=O)c1ccccc1C2=O | > 100 µM | > 100 µM | > 56.3 µM | > 100 µM | > 100 µM | > 100 µM | > 100 µM | > 100 µM | > 100 µM | > 100 µM | – | – | – | – | – | – | – | –
CC(N=NNc1ccc(-c2nc3ccccc3[nH]2)cc1)C(=O)O (stereo not drawn) | > 100 µM | > 100 µM | 34.1 µM | 61.6 µM | > 100 µM | > 100 µM | 54.7 µM | > 100 µM | > 100 µM | > 100 µM | – | – | – | – | – | – | – | –
Cc1ccc(Nc2nc3[nH]ccc3c(=O)[nH]2)cc1 | > 100 µM | > 100 µM | > 100 µM | > 100 µM | > 100 µM | > 100 µM | > 100 µM | > 100 µM | > 100 µM | > 100 µM | – | – | – | – | – | – | – | –
C=CCSC1=N/C(=C\c2ccc(Cl)cc2)C(=O)N1CC=C | 76 µM | – | 46.2 µM | > 100 µM | > 100 µM | > 100 µM | > 100 µM | > 100 µM | 24.5 µM | > 100 µM | – | – | – | – | – | – | – | –
CC1CC[C@@]2(OC1)OC1C[C@H]3[C@@H]4CC=C5CC(OC6OC(CO)C(OC7OC(CO)C(O)C(OC8OCC(O)C(O)C8O)C7OC7OC(CO)C(OC8OC(C)C(OC9OC(C)C(O)C(O)C9O)C(O)C8O)C(O)C7O)C(O)C6O)CCC5(C)[C@H]4CCC3(C)C1[C@@H]2C (stereo partly drawn) | 13.5 µM | 18.1 µM | 26.8 µM | 18.9 µM | 17.3 µM | 22.9 µM | 20.7 µM | 15.9 µM | 17.2 µM | 14.5 µM | – | – | – | – | – | – | – | –
COC1CC(N)(c2ccccc2)C(O)C(C)O1 (stereo not drawn) | > 100 µM | > 100 µM | > 100 µM | > 100 µM | > 100 µM | > 100 µM | > 100 µM | > 100 µM | > 100 µM | > 100 µM | – | – | – | – | – | – | – | –
NC(=O)Nc1c(Cl)cc(S(N)(=O)=O)cc1Cl | > 100 µM | > 100 µM | > 100 µM | > 100 µM | > 100 µM | > 100 µM | > 100 µM | > 100 µM | > 100 µM | > 100 µM | – | – | – | – | – | – | – | –
[N-]=[N+]=Nc1c(Cc2ccccc2)c(Cl)nc2ccccc12 | 33.4 µM | 59.7 µM | 58.8 µM | > 100 µM | 38.5 µM | > 100 µM | 38.4 µM | > 100 µM | 56.6 µM | > 100 µM | – | – | – | – | – | – | – | –
N#CN1C2CCC1CC(=O)C2 | > 100 µM | – | > 100 µM | > 100 µM | > 100 µM | > 100 µM | > 100 µM | > 100 µM | > 100 µM | > 100 µM | – | – | – | – | – | – | – | –
Cc1ccc(C(=N)c2ccccc2Cc2cccc3ccccc23)c2ccccc12 | > 100 µM | > 100 µM | > 100 µM | > 100 µM | > 100 µM | > 100 µM | > 100 µM | > 100 µM | > 100 µM | > 100 µM | – | – | – | – | – | – | – | –
O=C(O)CCc1nc2c(n1-c1ccccc1)C(=O)c1ccccc1C2=O | > 100 µM | > 100 µM | > 100 µM | > 100 µM | > 100 µM | > 100 µM | > 100 µM | > 100 µM | > 100 µM | > 100 µM | – | – | – | – | – | – | – | –
O=C1c2cccc([N+](=O)[O-])c2C(=O)N1Cc1ccccc1 | > 100 µM | > 100 µM | > 100 µM | > 100 µM | > 100 µM | > 100 µM | > 100 µM | > 100 µM | > 100 µM | > 100 µM | – | – | – | – | – | – | – | –
CCN(CCCOc1ccccc1)CCN(CC)CCCOc1ccccc1 | 32.3 µM | 46.8 µM | 57.3 µM | 30 µM | 27.9 µM | 70.5 µM | 31.9 µM | 23.9 µM | 25.4 µM | 28.7 µM | – | – | – | – | – | – | – | –
Fc1ccc(C(OCCN2CCN(CCCc3ccccc3)CC2)c2ccc(F)cc2)cc1 | 12.2 µM | 13.9 µM | 18.9 µM | 13.4 µM | 15.6 µM | > 50.6 µM | 15.9 µM | 19.5 µM | 16 µM | 14 µM | – | – | – | – | – | – | – | –
CCCCN(CCCC)Cc1cc(Nc2ccnc3cc(Cl)ccc23)ccc1O | > 100 µM | > 100 µM | > 100 µM | – | > 100 µM | – | > 100 µM | > 100 µM | > 100 µM | > 100 µM | 45.1 µM | 11.1 µM | 8.91 µM | 2.81 µM | 74.7 µM | > 100 µM | 5.88 µM | 19.8 µM
CCC/C(Cl)=N\OC(=O)Nc1ccc(F)cc1 | 34.8 µM | 43.4 µM | > 55 µM | 19.3 µM | 9.97 µM | 27.2 µM | 9.76 µM | 31 µM | 3.86 µM | > 100 µM | – | – | – | – | – | – | – | –
C=CCOC(=O)N1c2ccc(O[Si](C)(C)C(C)(C)C)cc2[C@@]23O[C@@]24[C@@H]1C#C/C=C\C#C[C@]3(O)C(OC)(OC)C[C@@H]4C | > 100 µM | > 100 µM | > 92.4 µM | > 100 µM | > 100 µM | > 100 µM | > 100 µM | > 100 µM | > 100 µM | > 100 µM | – | – | – | – | – | – | – | –

Source: PubChem BioAssay (NCI)
